In one assay the target is T1, Progesterone receptor (Homo sapiens, UniProt P06401).
T1 sequence (P06401 whole entry): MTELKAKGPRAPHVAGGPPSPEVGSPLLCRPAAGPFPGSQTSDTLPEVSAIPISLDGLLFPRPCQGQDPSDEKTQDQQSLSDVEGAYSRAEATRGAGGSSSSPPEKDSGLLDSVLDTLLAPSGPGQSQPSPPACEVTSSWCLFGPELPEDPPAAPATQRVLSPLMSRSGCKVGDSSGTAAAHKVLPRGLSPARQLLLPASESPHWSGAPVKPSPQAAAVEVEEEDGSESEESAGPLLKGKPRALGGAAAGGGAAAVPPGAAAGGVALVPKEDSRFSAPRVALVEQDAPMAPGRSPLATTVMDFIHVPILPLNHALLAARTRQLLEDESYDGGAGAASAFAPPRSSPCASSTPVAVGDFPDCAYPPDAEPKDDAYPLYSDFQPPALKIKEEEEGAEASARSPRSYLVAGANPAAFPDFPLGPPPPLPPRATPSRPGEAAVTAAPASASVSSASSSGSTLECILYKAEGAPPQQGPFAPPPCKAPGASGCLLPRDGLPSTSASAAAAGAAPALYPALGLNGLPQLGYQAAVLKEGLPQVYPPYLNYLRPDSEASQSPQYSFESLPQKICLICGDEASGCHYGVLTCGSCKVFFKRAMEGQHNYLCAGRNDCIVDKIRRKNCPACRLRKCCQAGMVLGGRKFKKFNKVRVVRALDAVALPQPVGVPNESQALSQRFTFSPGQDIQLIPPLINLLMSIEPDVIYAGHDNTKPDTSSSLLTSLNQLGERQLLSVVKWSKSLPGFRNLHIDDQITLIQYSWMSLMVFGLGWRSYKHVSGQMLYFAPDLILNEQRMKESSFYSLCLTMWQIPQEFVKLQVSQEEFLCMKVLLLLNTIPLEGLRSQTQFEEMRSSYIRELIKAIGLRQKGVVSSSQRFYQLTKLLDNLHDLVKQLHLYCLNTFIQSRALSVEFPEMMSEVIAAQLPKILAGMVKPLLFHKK
The assay is classed as functional.

The target in assay [1] is T2, Alpha-1A adrenergic receptor (Homo sapiens, UniProt P35348).
T2 sequence (P35348 whole entry): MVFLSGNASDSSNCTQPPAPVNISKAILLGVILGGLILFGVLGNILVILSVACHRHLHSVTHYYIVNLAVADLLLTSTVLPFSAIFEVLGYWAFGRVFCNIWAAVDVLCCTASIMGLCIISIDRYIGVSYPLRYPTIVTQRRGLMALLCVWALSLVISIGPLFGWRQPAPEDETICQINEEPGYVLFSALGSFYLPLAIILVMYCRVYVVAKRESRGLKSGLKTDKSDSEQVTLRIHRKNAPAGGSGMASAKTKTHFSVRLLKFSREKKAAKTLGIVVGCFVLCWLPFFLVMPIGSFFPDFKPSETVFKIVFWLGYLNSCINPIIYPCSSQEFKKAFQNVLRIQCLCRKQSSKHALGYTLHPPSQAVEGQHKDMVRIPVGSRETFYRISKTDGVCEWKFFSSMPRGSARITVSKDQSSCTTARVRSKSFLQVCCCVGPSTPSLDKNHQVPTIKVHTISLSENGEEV
In kind it is functional, cell-based.

Another assay addresses T3, B2 bradykinin receptor (Homo sapiens, UniProt P30411).
T3 sequence (P30411 whole entry): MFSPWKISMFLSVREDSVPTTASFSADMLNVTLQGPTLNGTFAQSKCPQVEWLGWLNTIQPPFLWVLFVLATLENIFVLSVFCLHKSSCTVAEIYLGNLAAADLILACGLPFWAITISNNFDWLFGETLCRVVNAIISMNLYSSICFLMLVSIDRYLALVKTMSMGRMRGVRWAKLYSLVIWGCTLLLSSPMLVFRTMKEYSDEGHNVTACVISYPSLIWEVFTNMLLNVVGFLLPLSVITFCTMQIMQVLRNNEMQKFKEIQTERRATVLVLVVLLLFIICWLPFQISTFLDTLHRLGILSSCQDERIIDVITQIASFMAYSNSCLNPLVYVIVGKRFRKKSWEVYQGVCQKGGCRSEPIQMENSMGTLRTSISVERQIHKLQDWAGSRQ

The target in assay [2] is T4, Muscarinic acetylcholine receptor M2 (Homo sapiens, UniProt P08172).
T4 sequence (P08172 whole entry): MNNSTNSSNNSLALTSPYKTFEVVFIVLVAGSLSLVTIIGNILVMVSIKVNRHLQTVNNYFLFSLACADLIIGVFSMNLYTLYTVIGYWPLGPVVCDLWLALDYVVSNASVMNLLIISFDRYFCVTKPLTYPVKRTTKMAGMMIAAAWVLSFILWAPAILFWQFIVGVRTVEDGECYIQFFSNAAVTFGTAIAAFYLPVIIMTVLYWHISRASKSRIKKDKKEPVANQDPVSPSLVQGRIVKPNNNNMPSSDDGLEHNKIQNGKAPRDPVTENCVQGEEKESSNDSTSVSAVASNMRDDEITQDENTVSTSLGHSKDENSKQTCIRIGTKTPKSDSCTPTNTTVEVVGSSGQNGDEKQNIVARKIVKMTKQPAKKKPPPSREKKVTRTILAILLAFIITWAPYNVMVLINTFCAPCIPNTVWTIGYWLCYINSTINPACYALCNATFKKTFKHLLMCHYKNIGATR
In kind it is functional, cell-based.

In assay [3] the target is Sodium-dependent dopamine transporter (Homo sapiens, UniProt Q01959).
Chain of Sodium-dependent dopamine transporter (Q01959 whole entry): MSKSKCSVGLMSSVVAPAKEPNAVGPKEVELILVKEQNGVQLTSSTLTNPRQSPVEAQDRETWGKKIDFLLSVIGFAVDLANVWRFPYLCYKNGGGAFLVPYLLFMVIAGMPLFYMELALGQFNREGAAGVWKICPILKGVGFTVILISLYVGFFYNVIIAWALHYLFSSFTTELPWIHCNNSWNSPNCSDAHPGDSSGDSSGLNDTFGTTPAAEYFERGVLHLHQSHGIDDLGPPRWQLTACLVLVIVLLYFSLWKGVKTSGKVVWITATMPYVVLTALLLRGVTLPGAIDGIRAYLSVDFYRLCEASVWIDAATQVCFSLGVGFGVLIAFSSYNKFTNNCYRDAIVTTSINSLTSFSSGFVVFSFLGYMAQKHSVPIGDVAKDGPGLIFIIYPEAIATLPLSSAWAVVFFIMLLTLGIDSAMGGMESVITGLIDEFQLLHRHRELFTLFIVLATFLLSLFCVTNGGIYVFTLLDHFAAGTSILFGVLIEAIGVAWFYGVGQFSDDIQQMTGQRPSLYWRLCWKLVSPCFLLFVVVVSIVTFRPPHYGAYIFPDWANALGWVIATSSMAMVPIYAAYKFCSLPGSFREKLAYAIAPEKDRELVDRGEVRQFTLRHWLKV
In assay [4] the target is T5, 5-hydroxytryptamine receptor 1A (Homo sapiens, UniProt P08908).
T5 sequence (P08908 whole entry): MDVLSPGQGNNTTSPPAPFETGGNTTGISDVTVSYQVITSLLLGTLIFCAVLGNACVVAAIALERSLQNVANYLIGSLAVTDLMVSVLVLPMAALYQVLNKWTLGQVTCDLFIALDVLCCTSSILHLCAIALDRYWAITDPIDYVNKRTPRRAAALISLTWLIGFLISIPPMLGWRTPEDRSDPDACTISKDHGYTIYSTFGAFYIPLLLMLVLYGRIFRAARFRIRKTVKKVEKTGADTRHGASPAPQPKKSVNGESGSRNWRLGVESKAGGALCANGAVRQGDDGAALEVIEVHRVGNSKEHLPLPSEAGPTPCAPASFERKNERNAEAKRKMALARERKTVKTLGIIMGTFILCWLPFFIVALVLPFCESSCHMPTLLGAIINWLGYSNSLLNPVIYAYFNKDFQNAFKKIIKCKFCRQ
In kind it is functional, cell-based.
Further: assay procedure not described here.

The term AC50 denotes the concentration at which the activity in the assay is half-maximal. Turning to `[H]/N=C(/N)N[C@H]1[C@H](O)[C@@H](O)[C@H](O[C@@H]2O[C@@H](C)[C@](O)(C=O)[C@H]2O[C@@H]2O[C@@H](CO)[C@H](O)[C@@H](O)[C@@H]2NC)[C@@H](N/C(N)=N\[H])[C@@H]1O` [STREPTOMYCIN], the AC50 (on Progesterone receptor; in assay [1]; on B2 bradykinin receptor; in assay [2]; in assay [3]; in assay [4]) was above 30 µM in each case.

With `COc1c(O[C@@H]2O[C@H](CO)[C@@H](O)[C@H](O)[C@H]2O)cc2c(c1OC)-c1ccc(SC)c(=O)cc1[C@@H](NC(C)=O)CC2` [THIOCOLCHICOSIDE], the AC50 (on Progesterone receptor; in assay [1]; at B2 bradykinin receptor; in assay [2]; in assay [3]; in assay [4]) was above 30 µM in each case.

As for `CC(C)(C)NC[C@H](O)COc1nsnc1N1CCOCC1` [TIMOLOL], the AC50 (on Progesterone receptor; in assay [1]; on B2 bradykinin receptor; in assay [2]; in assay [3]; in assay [4]) was above 30 µM each time.

Consider `Cc1cccc(N(C)C(=S)Oc2ccc3ccccc3c2)c1` [TOLNAFTATE], for which the AC50 is above 30 µM on Progesterone receptor; above 30 µM in assay [1]; above 10 µM at B2 bradykinin receptor; above 10 µM in assay [2]; above 10 µM in assay [3]; above 10 µM in assay [4].

For the compound `COc1cc2c(Nc3ccc(Br)cc3F)ncnc2cc1OCC1CCN(C)CC1` [VANDETANIB], the AC50 on Progesterone receptor was above 10 µM; in assay [1], 22 µM; at B2 bradykinin receptor it was above 10 µM; in assay [2], above 30 µM; in assay [3], 14 µM; in assay [4] it was above 30 µM.

Turning to `C=CC(N)CCC(=O)O` (stereo unspecified) [VIGABATRIN], the AC50 is above 10 µM at Progesterone receptor; above 30 µM in assay [1]; above 10 µM on B2 bradykinin receptor; above 10 µM in assay [2]; 19.5 µM in assay [3]; above 10 µM in assay [4].

The record behind these values is ChEMBL document CHEMBL5291721, “A preclinical secondary pharmacology resource illuminates target-adverse drug reaction associations of marketed drugs” (Nat Commun, 2023).
